Assay results published in patent US20200239587A1, “SENSITIZATION OF TUMORS TO THERAPIES THROUGH ENDOGLIN ANTAGONISM” (Cedars-Sinai Medical Center, priority 2016, published 2020).

Assays:
[1] = system: SFRP1 expression in human NAF and CAF; test: SFRP1 mRNA expression in NAF and CAF treated with TRC105; type: cell-based; conditions: vs IgG
Text: See also FIG. 15. […] Immunohistochemical localization of CD105 and SFRP1 in benign or PCa tissues are found in blood vessels (v), epithelia (e), and stroma (s), n=4. Scale bar represents 100 μm. FIG. 12E) Epithelial proliferation of human CW22Rv1, in 3D co-cultures with mouse prostatic fibroblasts, were co-stained for EpCam and Ki67 for FACS analysis. […] See also FIG. 16. […] Error bars are mean+/−SD and **p<0.01, ****p<0.0001, compared to control unless otherwise indicated.
CW22Rv1, C42B, and PC3 cells from ATCC were expanded as directed. Prostatectomy specimens from Cedars-Sinai Medical Center or the Greater Los Angeles Veterans Affairs were cultured to generate NAF and CAF cells using the same method, as C57BL/6 mouse wild-type prostatic fibroblasts were grown as previously reported (Franco et al., 2011, Cancer research 71, 1272-1281; Kiskowski et al., 2011, Cancer research 68, 4709-4718). TRC105 and M1043 were provided by TRACON Pharmaceuticals, Inc. (San Diego, Calif.). […]
(§1) Total RNA was extracted using the RNeasy kit (Qiagen). […] Quantitative RT-PCR was performed with 5 replicates using the Step One Real-Time PCR system (Applied Biosystems). […] For RNA-sequencing, Ion Proton AmpliSeq Transcriptome RNA Sequencing was performed achieving an average of 3M reads. We mapped an average of 88% of the reads to the human genome with Torrent Suite version 4.4.2.

[2] = system: SIRT1 transcription in CW22Rv1; test: BMP dependent SIRT1 mRNA expression; type: cell-based, human; conditions: 50 ng/ml BMP4, serum free; TRC105 0.05-10 μg/ml
Experimental: FIG. 20A) Western blot for SIRT1 expression measured in 22Rv1 cells following serum starvation and treatment with 50 ng/ml BMP4 for 4 hours. Phosphorylated Smad1/5 and β-actin was measured concurrently. FIG. 20B) SIRT1 mRNA expression was measured in CW22Rv1 under serum free conditions with 50 ng/ml BMP4, IgG in the context of increasing doses of TRC105 (0.05, 0.1, 0.5, 1, 5, or 10 μg/ml). SIRT1 mRNA expression was normalized to GAPDH and to serum treated control. FIG. 20C) Fold Change of SIRT1 mRNA in benign prostate and prostate cancer patients, obtained from R2-Genomics analysis is expressed (n=95). FIG. 20D) Immunohistochemical localization for SIRT1 expression in benign and prostate cancer tissues is indicated by arrows (Human Protein Atlas). […] FIG. 20E) SIRT1 mRNA expression was measured 72 hours following irradiation of 22Rv1 in a dose range of 0-6 Gy. FIG. 20F) SIRT1 mRNA expression was measured in a time course 0-72 hours following 4 Gy irradiation. […]
as §1

CW22Rv1 cells [3] = test: Cell cycle analysis after irradiation; type: cell-based, human
Experimental: Within each group, the left column depicts G1, middle column depicts S and the right column depicts G2. […] All studies shown are 5 days after irradiation and/or 5 days of treatment with TRC105.
22Rv1 were pre-treated with 1 μg/ml TRC105 24 hours prior to irradiation with 4 Gy. FIG. 22A) γ-H2AX or p53 bp were imunolocalized at 4, 24, and 48 hours post radiation. Foci per nuclei were quantified (n=100). FIG. 22B) Comet assay was performed 30 minutes and 24 hours following irradiation. The tail moment was quantified (n=50). FIG. 22C) Cell cycle analysis was performed on 22Rv1 at 0, 4, 8, and 24 hours post radiation in the presence of IgG or TRC105 (n=3) in 3 independent experiments. (***p<0.001, ****p<0.0001).

p53 in 22Rv1 cells = test: p53 status after irradiation; type: cell-based, human
Experimental: In search for an alternate process mediating TRC105 radiation sensitization the inventors examined changes in cell cycle. The impact of radiation on the cell cycle is well described, as causing a G2 cell cycle arrest that undergoes cell cycle redistribution. […] As SIRT1 has previously been reported to regulate p53 stability by de-acetylating p53, the inventors investigated p53 status with TRC105 treatment. 22Rv1 cells were treated with either TRC105 or 200 μM nicotinamide, an inhibitor of SIRT1 activity, prior to irradiation (4Gy). Cells were then collected at 0, 1, and 7 days post radiation to elucidate early and late p53 response. […] While loss-of-function p53 mutations are rare in prostate cancer, 90% of pancreatic cancers have p53 mutations. We therefore used two p53 mutant pancreatic cancer cell lines: HPAF-II and MIAPACA-2 to identify if TRC105 unresponsiveness to radiation was due to p53 loss of functionality.

CW22Rv1 cells [4] = test: Seahorse-XF mito-stress test; type: cell-based, human
Experimental: Cells were analyzed for mito-stress test by Seahorse-XF 168 hours following 4 Gy of radiation in the presence of IgG or TRC105. FIG. 26A) Basal respiration, non-mito respiration, proton leak, spare respiratory capacity, FIG. 26B) extracellular acidification rate (ECAR) and FIG. 26C) mitochondrial dependent ATP production were quantitated using Wave 2.3.0 analysis. Data are reported as mean+/−S.D. of a representative experiment (n=5) of 3 independent experiments. FIGS. 26A-26C, the first/left column depicts 0Gy+IgG, the second column depicts 0Gy+TRC105, the third column depicts 4Gy+IgG and the last/right column depicts 4Gy+TRC105. FIG. 26D) 22Rv1 cells treated with IgG, TRC105 or nicotinamide were irradiated (4 Gy). Total cellular ATP was measured 0, 24, 72, 120, and 168 hours post radiation. Within each group, the left column is IgG, middle column is TRC105 and the right column is nicotinamide. Data are reported as mean+/−S.D. of 3 independent experiments. (***p<0.001, ****p<0.0001).

TRC105: partially humanized monoclonal antibody that blocks BMP signaling; human-specific CD105 (endoglin) neutralizing antibody from Tracon Pharmaceuticals
SFRP1 expression in NAF [1]: no effect | SFRP1 expression in CAF ([1]; p<0.0001): significantly down regulated | BMP dependent induction of SIRT1 transcription [2]: down-regulated when CD105 was antagonized with TRC105 in a dose dependent manner | cell cycle distribution (CW22Rv1 cells [3]; 4 Gy plus TRC105, 0-24 hours): G2 cell cycle arrest that did not resolve by 24 hours | cell cycle, G2-phase (CW22Rv1 cells [3]; radiation combined with TRC105, 5 days): chronic up regulation of the G2-phase | acetylated and total-p53 (p53 in 22Rv1 cells; by 7 days post radiation): markedly increased | anti-apoptotic protein Bc1-2 (p53 in 22Rv1 cells; prior to 4Gy irradiation): decrease in the anti-apoptotic protein Bc1-2 | p21 (p53 in 22Rv1 cells; prior to 4Gy irradiation): increase in p21 | acetylated p53 (p53 in 22Rv1 cells; treatment prior to 4Gy, nicotinamide 200 μM): increase in acetylated p53 | mitochondrial dependent ATP production (CW22Rv1 cells [4]; TRC105 alone): depletion of mitochondrial dependent ATP production | spare respiratory capacity (CW22Rv1 cells [4]; TRC105 plus 4 Gy vs radiation alone): further decrease in spare respiratory capacity | basal oxidative phosphorylation (CW22Rv1 cells [4]; TRC105 plus 4 Gy vs radiation alone, 168 hours): decrease in basal oxidative phosphorylation | glycolysis (extracellular acidification) (CW22Rv1 cells [4]; addition of TRC105 in the context of radiation): blocked glycolysis | mitochondrial dependent ATP production (CW22Rv1 cells [4]; combination of radiation and TRC105 vs either agent alone): further depletion
